The values below come from PubChem BioAssay (NCI).

As usually defined, the TGI is the concentration at which net growth stops.

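Grown in 96-well plates, cells were treated for 48 hours with each compound at five concentrations. Insufficient inhibition: endpoint recorded as highest concentration tested. At the TGI there is no net growth.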 Where a SMILES comes first, the peptide text is derived from it. [ ]: non-standard residue; d: D form. The star is where a group is joined. Bn2Val = CC(C)[C@@H](C(=O)*)N(Cc1ccccc1)Cc1ccccc1; NHPiperonyl = c1cc2c(cc1CN*)OCO2; NMeV = CN[C@H](C(=O)O)C(C)C; dNMeA = CN[C@H](C)C(=O)O

What all share (test): DTP human tumour cell line panel, 48 h
Experiment [1] deals with CAKI-1 renal.
The subject of experiment [2] is EKVX NSCLC.
The test system of experiment [3] is HCC-2998 colon.
Experiment [4] has as its system HCT-15 colon.
In experiment [5] the test system is HOP-92 NSCLC.
Experiment [6] concerns HS 578T breast.
The test system of experiment [7] is HT29 colon.
In experiment [8] the test system is M14 melanoma.
In experiment [9] the test system is MALME-3M melanoma.
Experiment [10] relates to NCI-H226 lung.
The test system of experiment [11] is NCI-H23 lung.
In experiment [12] the test system is NCI/ADR-RES ovarian.
The subject of experiment [13] is SF-268 CNS.
Experiment [14] has as its system SF-539 CNS.
For experiment [15], the system named is SK-OV-3 ovarian.
The test system of experiment [16] is SW-620 colon.
Experiment [17] relates to UACC-62 melanoma.
In experiment [18] the test system is OVCAR-3 ovarian.
Experiment [19] concerns OVCAR-4 ovarian.
The subject of experiment [20] is SK-MEL-28 melanoma.

On to `CCOC(=O)C1C(c2ccco2)C2(C#N)C(=N)OC1(C)C2(C#N)C#N` (stereo not given), for which the concentration for total growth inhibition (TGI) in experiment [1], in experiment [2], in experiment [3], in [4], in experiment [5] and in [6] was above 100 µM each time. The TGI in [7], in experiment [8], in experiment [9], in experiment [10], in experiment [11] and in [12] was above 100 µM each time. Moreover, the TGI in [13], in experiment [14], in experiment [15], in experiment [16] and in experiment [17] was above 100 µM each time.

As for `Cc1ccc(N/C(=C(/C(Cl)=C(Cl)Cl)[N+](=O)[O-])n2nnc3ccccc32)cc1`, the TGI in experiment [1] was found to be 31.6 µM; in experiment [2], 39.5 µM; in [3] it was 35.1 µM; in experiment [4], 52.3 µM; in experiment [6], 47.1 µM; in experiment [7], 42 µM. The TGI worked out at 31.7 µM in experiment [8]; 29.9 µM in [9]; 35.3 µM in experiment [10]; 43.8 µM in [11]; 69.5 µM in [12]; 34.3 µM in experiment [18]. The TGI stood at 39.6 µM in [19]; 36.8 µM in experiment [13]; 31.3 µM in experiment [14]; 33.8 µM in experiment [20]; 35.8 µM in [15]; 43.5 µM in experiment [16].

Regarding `O=C1CC2(CCN(CC3COc4ccccc4O3)CC2)C(=O)N1N1CCCCCC1` (stereo not given), the concentration for total growth inhibition (TGI) in experiment [1] is above 100 µM; in experiment [2] it was above 100 µM; in experiment [4], above 100 µM; in [5] it was above 100 µM; in experiment [6], above 100 µM; in experiment [7], 47.6 µM. Also, the TGI in [8], in experiment [9], in experiment [10], in [11], in experiment [12] and in [18] was above 100 µM each time. The total growth inhibition concentration (TGI) in experiment [19], in experiment [13], in [14], in experiment [20], in experiment [15] and in experiment [17] was above 100 µM in each case.

For `Clc1ccc(/C=c2\nc(-c3ccccc3)n3c2nc2ccccc23)cc1`, the TGI in experiment [1] was above 100 µM; in experiment [2], 71.4 µM; in experiment [4] it was above 100 µM; in [5], above 100 µM; in [6], above 100 µM; in experiment [7], above 100 µM. Moreover, the TGI in [8], in experiment [9], in experiment [10], in experiment [11], in [12] and in experiment [18] was above 100 µM each time. The TGI was above 100 µM in experiment [19]; above 100 µM in experiment [13]; 52.2 µM in experiment [14]; 0.952 µM in experiment [20]; above 100 µM in [15]; above 100 µM in experiment [16]. Moreover, the TGI in [17] was above 100 µM.

As for `CC(C)[C@H](NC(=O)[C@H](C(C)C)N(Cc1ccccc1)Cc1ccccc1)C(=O)N(C)[C@H](C(=O)N1CCC[C@H]1C(=O)N(C)[C@H](C)C(=O)NCc1ccc2c(c1)OCO2)C(C)C` (Bn2Val-V[NMeV]P[dNMeA]-NHPiperonyl), the TGI in experiment [1] was above 100 µM; in experiment [2], above 100 µM; in experiment [3] it was 37.1 µM; in experiment [4] it was above 100 µM; in experiment [6], above 100 µM; in [7] it was 9.04 µM. The TGI in experiment [8] is above 100 µM; in [9] it was above 65.3 µM; in experiment [10] it was above 100 µM; in experiment [11], above 100 µM; in experiment [12], above 100 µM; in experiment [18], 57.9 µM. Besides, the TGI is above 100 µM in [19]; above 74.5 µM in experiment [13]; 11.5 µM in experiment [14]; above 100 µM in experiment [20]; above 100 µM in experiment [15]; above 100 µM in experiment [16]. In experiment [17], this molecule came in with a TGI above 74.2 µM.

Take `COC1CC(=O)C2C(=O)N(c3ccccc3)C(=O)C23C(C(=O)c2ccccc2)=C(C)NC13O` (stereo not given): the TGI in [1] was 22.1 µM; in [2], 59.9 µM; in [4] it was 23.4 µM; in [5], 25.2 µM; in experiment [6], 57.7 µM; in experiment [7] it was 34.2 µM. Besides, the TGI in [8] stood at 35.5 µM; in [9], 9.96 µM; in experiment [11], 46.3 µM; in [12], 50.9 µM; in experiment [18] it was 8.12 µM; in experiment [19] it was 16.6 µM. Also, the TGI is 22.6 µM in experiment [13]; 21.8 µM in [14]; 23.6 µM in [20]; 54 µM in [15]; 23 µM in [16]; 31.3 µM in experiment [17].

For the molecule `Cc1nc2ccc(F)cc2c2c1CCN2c1ccccc1`, the TGI in experiment [2] was 94.9 µM; in experiment [3] it was 38.2 µM; in [4], above 100 µM; in experiment [5], 37.8 µM; in experiment [6], above 100 µM; in [7], above 100 µM. The TGI in experiment [9] is 40.8 µM; in experiment [10] it was 41.8 µM; in experiment [11] it was 52.9 µM; in [12] it was 68 µM; in [18] it was above 100 µM; in [19], above 100 µM. Further, the TGI was above 100 µM in [13]; 44 µM in experiment [14]; 34.3 µM in experiment [20]; above 100 µM in [16]; 27.4 µM in experiment [17].

Consider `Clc1ccc(-c2c3nc(c(-c4ccc(Cl)cc4)c4ccc([nH]4)c(-c4ccc(Cl)cc4)c4nc(c(-c5ccc(Cl)cc5)c5ccc2[nH]5)C=C4)C=C3)cc1`, for which the TGI in experiment [1], in experiment [2], in experiment [3], in [4], in experiment [5] and in experiment [6] was above 100 µM throughout. Moreover, the TGI in experiment [7], in [8], in experiment [9], in experiment [11], in experiment [12] and in experiment [18] was above 100 µM throughout. Also, the TGI in experiment [19], in [13], in experiment [14], in [20], in experiment [15] and in experiment [16] was above 100 µM each time. For the same molecule, the TGI in experiment [17] is above 100 µM.
